Reference: patent US7572825B2, “Ketones and reduced ketones as therapeutic agents for the treatment of bone conditions” (The University Court of the University of Aberdeen, priority 2003, dated 2009)

Columns and labels:
J774 macrophages = assay: Alamar Blue macrophage J774 viability assay; assay type: cell-based; conditions: Mus musculus, 72 hours exposure, J774 macrophage cell line, read-out: IC50 against J774 macrophages (viability)
Experimental: Initial screening of candidate compounds was performed using viability assays, on cultures of the macrophage cell line J774, which have been used before as a model system for osteoclast survival (see, e.g., Luckman et al., 1998). The assay is based on the survival of the J774 macrophage cell line; macrophages are closely related to osteoclasts, and contain similar high levels of esterase activity.
J774 cells were plated at 10^4 cells per well in 150 μL αMEM (α Modified Eagle Medium) in 96-well plates and grown overnight. The next day, compounds were added to the cultures, and culture was continued for another 72 hours. At the end of the culture period cell survival was determined using an Alamar Blue assay as previously described (see, e.g., Nociari et al., 1998).
Alamar Blue is an oxidation-reduction sensitive indicator. The dye itself is in the oxidised state, which is blue and non-fluorescent. […] Thus the transformation from oxidised form to reduced form can be measured by fluorimetric or colourimetric means. For fluorescence measurements, 530-560 nm excitation and 590 nm emission wavelengths are typically used. For colourimetric measurements, absorbance is measured at 570 nm (reduced form) and 600 nm (oxidised form) and a simple calculation performed to determine the relative quantities of the two species. […]

osteoblasts = assay: Alamar Blue mouse osteoblast assay; assay type: cell-based; conditions: 72 hours exposure, read-out: IC50 against osteoblasts (survival)
Experimental: Osteoblasts were isolated as described above and plated at 10^4 cells/well in 96-well plates in 100 μL of αMEM supplemented with 10% FCS and antibiotics. Test compounds were added after 24 hours and left for 72 hours. Cell viability was assessed using the Alamar Blue assay as described for J774 macrophages. Alamar Blue (Biosource International) was added undiluted to each well (1:10 v/v, 10 μL). The plate was incubated at 37° C. for 3 to 4 hours and the fluorescence was measured at 570 nm, with a 25 nm bandwidth.
Osteoblast Isolation. Briefly, osteoblasts were isolated from the calvarial bones of 2-day-old mice by sequential collagenase digestion (type I collagenase, Sigma) and cultured in αMEM supplemented with 10% FCS (foetal calf serum) and penicillin and streptomycin at 37° C. in 5% CO2.
More specifically, osteoblasts were obtained from a collagenase digestion of the calvaria (skull bones) of 2-3 day old neo-natal MF1 mice. At this stage in their development these are soft and easily removed. The calvaria from 5-6 mice were carefully dissected and washed in HBSS (Hank's balanced saline solution). The calvaria were placed in a 15 mL tube and shaken at 37° C. in 4 mL collagenase (10 mg/ml) for 10 minutes. This removes the excess unwanted tissue. The liquid was disposed of and a further 4 mL collagenase (10 mg/ml) added to the tube. The calvaria were then digested for a further 30 minutes. […]

[1] = tested on: ovariectomy induced bone loss; assay: Ovariectomy induced bone loss in mice, trabecular bone mineral density by pQCT; assay type: in vivo; conditions: OVX female C57/BL6 mice, 20 mg/kg by gavage in olive oil, 21 days, tibial metaphysis
Experimental: Animals. Female 9 week-old C57/BL6 mice. Animals were housed in a designated animal facility and routinely maintained on a 12 h:12 h light:dark cycle and given ad libitum access to food and water. Ovariectomy induced bone loss. Bilateral ovariectomy (Ovx) was performed under general anaesthesia. Sham ovariectomy (Sham) was similarly performed but with externalisation and replacement of the ovaries. Animals were given a gavage of (a) candidate compound (e.g., 20 mg/kg) in vehicle (olive oil), or (b) vehicle (olive oil). After 21 days, the animals were killed, and the tibial bones were dissected and used for bone mineral density measurements. Bone Mineral Measurements. Measurements of bone mineral density (BMD) at the left proximal tibial metaphysis were determined by peripheral quantitative computed tomography (pQCT) using an XCT Research M bone densitometer with a voxel size of 70 μm and analysis software version 5.1.4. (Stratec Medizintechnik, Pforzheim, Germany). Daily quality assurance measurements were performed using a plexi-coated PVC-fluorinated hydrocarbon phantom according to the manufacturer's instructions.

| SMILES | IC50 (J774 macrophages) [µM] | IC50 (osteoblasts) [µM] | reversal of ovariectomy-induced bone loss (percent change in trabecular BMD) [1] |
| --- | --- | --- | --- |
| O=C(CCCCCO)c1ccc(-c2ccccc2)cc1 [ABD-68, 6-Hydroxy-1-(4-biphenyl)hexan-1-one] | < 20 | > 100 | very effective at reversing the bone loss |
| OCCCCCC(O)c1ccc(-c2ccccc2)cc1 (centres unmarked) [ABD-150, 1-Biphenyl-4-yl-hexan-1,6-diol] | < 20 | > 100 |  |
